What was measured:
[1] = test system: patients receiving acute treatment of migraine; assay: Phase 2/3 trial BHV3500-201 (Study 201), efficacy in acute treatment of migraine; format: in vivo, human; details: for Pain relapse from 2 to 48 hours postdose, n/N (%): mITT subjects with pain freedom at 2 hours postdose; for Nausea freedom at 2 hours postdose, n/N (%) / Phonophobia freedom at 2 hours postdose, n/N (%) / Photophobia freedom at 2 hours postdose, n/N (%): mITT subjects with symptom present at on-study migraine attack onset; for Pain relief at 2 hours postdose, n/N (%) / Pain relief at 30 minutes postdose, n/N (%) / Pain relief at 60 minutes postdose, n/N (%) / Rescue medication use within 24 hours postdose, n/N (%) / Sustained pain freedom from 2 to 24 hours postdose, n/N (%) / Sustained pain freedom from 2 to 48 hours postdose, n/N (%) / Sustained pain relief from 2 to 24 hours postdose, n/N (%) / Sustained pain relief from 2 to 48 hours postdose, n/N (%): mITT subjects; for Pain relief at 30 minutes postdose, Stratified Percentage Difference (Zavegepant-Placebo) / Pain relief at 60 minutes postdose, Stratified Percentage Difference (Zavegepant-Placebo) / Rescue medication use within 24 hours postdose, Stratified Percentage Difference (Zavegepant-Placebo) / Sustained pain freedom from 2 to 24 hours postdose, Stratified Percentage Difference (Zavegepant-Placebo) / Sustained pain freedom from 2 to 48 hours postdose, Stratified Percentage Difference (Zavegepant-Placebo) / Sustained pain relief from 2 to 24 hours postdose, Stratified Percentage Difference (Zavegepant-Placebo) / Sustained pain relief from 2 to 48 hours postdose, Stratified Percentage Difference (Zavegepant-Placebo) / Pain relief at 2 hours postdose, Stratified Percentage Difference (Zavegepant-Placebo): mITT; for Pain relief at 30 minutes postdose, Stratified Percentage Difference (Zavegepant-Placebo) / Pain relief at 60 minutes postdose, Stratified Percentage Difference (Zavegepant-Placebo) / Rescue medication use within 24 hours postdose, Stratified Percentage Difference (Zavegepant-Placebo) / Sustained pain freedom from 2 to 24 hours postdose, Stratified Percentage Difference (Zavegepant-Placebo) / Sustained pain freedom from 2 to 48 hours postdose, Stratified Percentage Difference (Zavegepant-Placebo) / Sustained pain relief from 2 to 24 hours postdose, Stratified Percentage Difference (Zavegepant-Placebo) / Sustained pain relief from 2 to 48 hours postdose, Stratified Percentage Difference (Zavegepant-Placebo) / Pain relief at 2 hours postdose, Stratified Percentage Difference (Zavegepant-Placebo) / Return to normal function at 30 minutes postdose, Stratified Percentage Difference (Zavegepant-Placebo) / Return to normal function at 60 minutes postdose, Stratified Percentage Difference (Zavegepant-Placebo) / Return to normal function at 2 hours postdose, Stratified Percentage Difference (Zavegepant-Placebo) / Pain relapse from 2 to 48 hours postdose, Stratified Percentage Difference (Zavegepant-Placebo) / Nausea freedom at 2 hours postdose, Stratified Percentage Difference (Zavegepant-Placebo) / Phonophobia freedom at 2 hours postdose, Stratified Percentage Difference (Zavegepant-Placebo) / Photophobia freedom at 2 hours postdose, Stratified Percentage Difference (Zavegepant-Placebo): CMH weighting; for Pain relief at 2 hours postdose, Stratified Percentage Difference (Zavegepant-Placebo): stratified by prophylactic migraine medication use; for Return to normal function at 30 minutes postdose, Stratified Percentage Difference (Zavegepant-Placebo) / Return to normal function at 60 minutes postdose, Stratified Percentage Difference (Zavegepant-Placebo) / Return to normal function at 2 hours postdose, Stratified Percentage Difference (Zavegepant-Placebo): subjects with functional disability at onset; for Pain relapse from 2 to 48 hours postdose, Stratified Percentage Difference (Zavegepant-Placebo): subjects with pain freedom at 2 hours postdose; for Nausea freedom at 2 hours postdose, Stratified Percentage Difference (Zavegepant-Placebo) / Phonophobia freedom at 2 hours postdose, Stratified Percentage Difference (Zavegepant-Placebo) / Photophobia freedom at 2 hours postdose, Stratified Percentage Difference (Zavegepant-Placebo): subjects with symptom present at onset; for Return to normal function at 30 minutes postdose, n/N (%) / Return to normal function at 60 minutes postdose, n/N (%) / Return to normal function at 2 hours postdose, n/N (%): mITT subjects with functional disability at on-study migraine attack onset
pKa of drug substance = format: physicochemical; details: mono-hydrochloride salt form

Cc1cc(C[C@@H](NC(=O)N2CCC(c3cc4ccccc4[nH]c3=O)CC2)C(=O)N2CCN(C3CCN(C)CC3)CC2)cc2cn[nH]c12 [Zavegepant, (R)—N-(3-(7-methyl-1H-indazol-5-yl)-1-(4-(1-methylpiperidin-4-yl)piperazin-1-yl)-1-oxopropan-2-yl)-4-(2-oxo-1,2-dihydroquinolin-3-yl)piperidine-1-carboxamide]
Pain relapse from 2 to 48 hours postdose, n/N (%) ([1]; zavegepant 5 mg): (31.6) %
Nausea freedom at 2 hours postdose, n/N (%) ([1]; zavegepant 5 mg): (53.2) %
Phonophobia freedom at 2 hours postdose, n/N (%) ([1]; zavegepant 5 mg): (44.2) %
Photophobia freedom at 2 hours postdose, n/N (%) ([1]; zavegepant 5 mg): (35.0) %
Pain relief at 2 hours postdose, n/N (%) ([1]; zavegepant 10 mg intranasal single dose): (60.6) %
Pain relief at 30 minutes postdose, Stratified Percentage Difference (Zavegepant-Placebo) ([1]; zavegepant 10 mg vs placebo): 5.3%
Pain relief at 60 minutes postdose, Stratified Percentage Difference (Zavegepant-Placebo) ([1]; zavegepant 10 mg vs placebo): 4.2%
Rescue medication use within 24 hours postdose, Stratified Percentage Difference (Zavegepant-Placebo) ([1]; zavegepant 10 mg vs placebo): −1.1%
Sustained pain freedom from 2 to 24 hours postdose, Stratified Percentage Difference (Zavegepant-Placebo) ([1]; zavegepant 10 mg vs placebo): 6.1%
Sustained pain freedom from 2 to 48 hours postdose, Stratified Percentage Difference (Zavegepant-Placebo) ([1]; zavegepant 10 mg vs placebo): 6.3%
Sustained pain relief from 2 to 24 hours postdose, Stratified Percentage Difference (Zavegepant-Placebo) ([1]; zavegepant 10 mg vs placebo): 6.8%
Sustained pain relief from 2 to 48 hours postdose, Stratified Percentage Difference (Zavegepant-Placebo) ([1]; zavegepant 10 mg vs placebo): 7.0%
Pain relief at 2 hours postdose, Stratified Percentage Difference (Zavegepant-Placebo) ([1]; zavegepant 10 mg vs placebo): 7.1%
Return to normal function at 30 minutes postdose, Stratified Percentage Difference (Zavegepant-Placebo) ([1]; zavegepant 10 mg vs placebo): 2.1%
Return to normal function at 60 minutes postdose, Stratified Percentage Difference (Zavegepant-Placebo) ([1]; zavegepant 10 mg vs placebo): 1.8%
Return to normal function at 2 hours postdose, Stratified Percentage Difference (Zavegepant-Placebo) ([1]; zavegepant 10 mg vs placebo): 7.1%
Pain relapse from 2 to 48 hours postdose, Stratified Percentage Difference (Zavegepant-Placebo) ([1]; zavegepant 10 mg vs placebo): −17.0%
Nausea freedom at 2 hours postdose, Stratified Percentage Difference (Zavegepant-Placebo) ([1]; zavegepant 10 mg vs placebo): 2.9%
Phonophobia freedom at 2 hours postdose, Stratified Percentage Difference (Zavegepant-Placebo) ([1]; zavegepant 10 mg vs placebo): 10.8%
Photophobia freedom at 2 hours postdose, Stratified Percentage Difference (Zavegepant-Placebo) ([1]; zavegepant 10 mg vs placebo): 5.1%
Pain relief at 30 minutes postdose, n/N (%) ([1]; zavegepant 10 mg): (29.9) %
Pain relief at 60 minutes postdose, n/N (%) ([1]; zavegepant 10 mg): (46.0) %
Rescue medication use within 24 hours postdose, n/N (%) ([1]; zavegepant 10 mg): (26.0) %
Sustained pain freedom from 2 to 24 hours postdose, n/N (%) ([1]; zavegepant 10 mg): (15.1) %
Sustained pain freedom from 2 to 48 hours postdose, n/N (%) ([1]; zavegepant 10 mg): (13.8) %
Sustained pain relief from 2 to 24 hours postdose, n/N (%) ([1]; zavegepant 10 mg): (42.5) %
Sustained pain relief from 2 to 48 hours postdose, n/N (%) ([1]; zavegepant 10 mg): (39.6) %
Return to normal function at 30 minutes postdose, n/N (%) ([1]; zavegepant 10 mg): (7.6) %
Return to normal function at 60 minutes postdose, n/N (%) ([1]; zavegepant 10 mg): (18.9) %
Return to normal function at 2 hours postdose, n/N (%) ([1]; zavegepant 10 mg): (34.5) %
Pain relapse from 2 to 48 hours postdose, n/N (%) ([1]; zavegepant 10 mg): (33.0) %
Nausea freedom at 2 hours postdose, n/N (%) ([1]; zavegepant 10 mg): (53.9) %
Phonophobia freedom at 2 hours postdose, n/N (%) ([1]; zavegepant 10 mg): (44.8) %
Photophobia freedom at 2 hours postdose, n/N (%) ([1]; zavegepant 10 mg): (35.6) %
Pain relief at 2 hours postdose, n/N (%) ([1]; zavegepant 20 mg intranasal single dose): (61.2) %
Pain relief at 30 minutes postdose, Stratified Percentage Difference (Zavegepant-Placebo) ([1]; zavegepant 20 mg vs placebo): 1.9%
Pain relief at 60 minutes postdose, Stratified Percentage Difference (Zavegepant-Placebo) ([1]; zavegepant 20 mg vs placebo): 7.8%
Rescue medication use within 24 hours postdose, Stratified Percentage Difference (Zavegepant-Placebo) ([1]; zavegepant 20 mg vs placebo): −7.1%
Sustained pain freedom from 2 to 24 hours postdose, Stratified Percentage Difference (Zavegepant-Placebo) ([1]; zavegepant 20 mg vs placebo): 6.7%
Sustained pain freedom from 2 to 48 hours postdose, Stratified Percentage Difference (Zavegepant-Placebo) ([1]; zavegepant 20 mg vs placebo): 5.7%
Sustained pain relief from 2 to 24 hours postdose, Stratified Percentage Difference (Zavegepant-Placebo) ([1]; zavegepant 20 mg vs placebo): 8.9%
Sustained pain relief from 2 to 48 hours postdose, Stratified Percentage Difference (Zavegepant-Placebo) ([1]; zavegepant 20 mg vs placebo): 6.2%
Pain relief at 2 hours postdose, Stratified Percentage Difference (Zavegepant-Placebo) ([1]; zavegepant 20 mg vs placebo): 7.5%
Return to normal function at 30 minutes postdose, Stratified Percentage Difference (Zavegepant-Placebo) ([1]; zavegepant 20 mg vs placebo): 4.5%
Return to normal function at 60 minutes postdose, Stratified Percentage Difference (Zavegepant-Placebo) ([1]; zavegepant 20 mg vs placebo): 1.7%
Return to normal function at 2 hours postdose, Stratified Percentage Difference (Zavegepant-Placebo) ([1]; zavegepant 20 mg vs placebo): 7.3%
Pain relapse from 2 to 48 hours postdose, Stratified Percentage Difference (Zavegepant-Placebo) ([1]; zavegepant 20 mg vs placebo): −12.5%
Nausea freedom at 2 hours postdose, Stratified Percentage Difference (Zavegepant-Placebo) ([1]; zavegepant 20 mg vs placebo): 3.7%
Phonophobia freedom at 2 hours postdose, Stratified Percentage Difference (Zavegepant-Placebo) ([1]; zavegepant 20 mg vs placebo): 9.3%
Photophobia freedom at 2 hours postdose, Stratified Percentage Difference (Zavegepant-Placebo) ([1]; zavegepant 20 mg vs placebo): 7.4%
Pain relief at 30 minutes postdose, n/N (%) ([1]; zavegepant 20 mg): (26.6) %
Pain relief at 60 minutes postdose, n/N (%) ([1]; zavegepant 20 mg): (49.8) %
Rescue medication use within 24 hours postdose, n/N (%) ([1]; zavegepant 20 mg): (20.2) %
Sustained pain freedom from 2 to 24 hours postdose, n/N (%) ([1]; zavegepant 20 mg): (15.7) %
Sustained pain freedom from 2 to 48 hours postdose, n/N (%) ([1]; zavegepant 20 mg): (13.2) %
Sustained pain relief from 2 to 24 hours postdose, n/N (%) ([1]; zavegepant 20 mg): (44.5) %
Sustained pain relief from 2 to 48 hours postdose, n/N (%) ([1]; zavegepant 20 mg): (38.8) %
Return to normal function at 30 minutes postdose, n/N (%) ([1]; zavegepant 20 mg): (9.9) %
Return to normal function at 60 minutes postdose, n/N (%) ([1]; zavegepant 20 mg): (18.8) %
Return to normal function at 2 hours postdose, n/N (%) ([1]; zavegepant 20 mg): (34.7) %
Pain relapse from 2 to 48 hours postdose, n/N (%) ([1]; zavegepant 20 mg): (37.6) %
Nausea freedom at 2 hours postdose, n/N (%) ([1]; zavegepant 20 mg): (54.7) %
Phonophobia freedom at 2 hours postdose, n/N (%) ([1]; zavegepant 20 mg): (43.3) %
Photophobia freedom at 2 hours postdose, n/N (%) ([1]; zavegepant 20 mg): (37.9) %
pKa (pKa of drug substance): 4.8
